Results: US5100874A, “Hydroxamic acid tetrapeptide derivatives” (Fuji Yakuhin Kogyo Kabushiki Kaisha, priority 1987, dated 1992)
Like-named read-outs stand apart in the source and are kept apart here. Square brackets hold non-standard residues; d marks the D form. Peptide text beside a SMILES is read from it. * marks the point of attachment. Benzoyl(4-OH) = O=C(c1ccc(O)cc1)*; 4Abz = Nc1ccc(C(=O)O)cc1; Boc = CC(C)(C)OC(=O)*; Bz = O=C(c1ccccc1)*; NHOH = ON*

Tests used:
[1] = target: T1, human fibroblast collagenase (Homo sapiens, UniProt P03956); test: Inhibitory activity against human fibroblast collagenase (method of Nagai, FITC-derivatized bovine type I collagen); assay type: biochemical
T1 construct: collagenase derived from human fibroblasts; from tissue; host or cells: human fibroblasts
T1 sequence (P03956 100-469): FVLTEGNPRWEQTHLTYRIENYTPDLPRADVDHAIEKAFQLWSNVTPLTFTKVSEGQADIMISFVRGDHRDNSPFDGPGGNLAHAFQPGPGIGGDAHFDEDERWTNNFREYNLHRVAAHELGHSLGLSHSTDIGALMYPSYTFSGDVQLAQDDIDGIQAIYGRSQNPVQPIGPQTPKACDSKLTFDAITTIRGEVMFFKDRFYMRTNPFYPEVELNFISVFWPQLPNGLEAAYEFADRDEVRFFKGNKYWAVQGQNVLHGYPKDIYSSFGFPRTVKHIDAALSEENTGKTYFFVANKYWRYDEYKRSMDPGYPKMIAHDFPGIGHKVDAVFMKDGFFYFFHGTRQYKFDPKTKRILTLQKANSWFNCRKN
Experimental: (§1) (1) Inhibitory activity against collagenases
(§2) The inhibitory activity against human fibroblast collagenase (collagenase derived from human fibroblasts), tadpole-derived collagenase and bacteria (Clostridium)-derived collagenase was assayed in accordance with the method of Nagai [see Ensho, 4(2), 123 (1984)] using a fluorescence-labeledcollagen (FITC-derivatized bovine type I collagen).

[2] = target: T2, tadpole-derived collagenase (Aquarana catesbeiana, UniProt Q11133); test: biochemical
T2 construct: collagenase from tadpoles; from tissue
T2 sequence (Q11133 89-384): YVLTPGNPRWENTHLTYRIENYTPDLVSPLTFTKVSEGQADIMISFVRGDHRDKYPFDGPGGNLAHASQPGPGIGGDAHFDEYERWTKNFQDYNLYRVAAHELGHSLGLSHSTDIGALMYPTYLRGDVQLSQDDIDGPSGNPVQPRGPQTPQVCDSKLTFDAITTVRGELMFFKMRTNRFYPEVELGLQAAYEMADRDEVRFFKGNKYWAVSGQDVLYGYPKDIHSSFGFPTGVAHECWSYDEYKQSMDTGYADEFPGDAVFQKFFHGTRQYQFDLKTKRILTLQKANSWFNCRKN
Experimental: as §1, §2

[3] = target: T3, thermolysin (Bacillus thermoproteolyticus, UniProt P00800); test: Inhibitory activity against thermolysin (method of Laskowski, thermally denatured casein substrate); assay type: biochemical; details: for inhibition at 4000 µM: at 4.0 × 10^-3 M
T3 sequence (P00800 233-548): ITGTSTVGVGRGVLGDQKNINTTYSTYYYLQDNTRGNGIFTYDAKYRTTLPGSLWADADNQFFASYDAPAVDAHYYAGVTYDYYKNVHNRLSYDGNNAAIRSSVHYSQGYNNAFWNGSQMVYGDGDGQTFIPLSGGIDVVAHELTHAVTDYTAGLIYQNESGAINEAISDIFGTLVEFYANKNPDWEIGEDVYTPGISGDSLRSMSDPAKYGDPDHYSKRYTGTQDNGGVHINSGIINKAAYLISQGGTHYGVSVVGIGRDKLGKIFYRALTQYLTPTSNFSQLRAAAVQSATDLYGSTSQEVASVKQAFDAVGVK
Experimental: (§3) (3) Inhibitory activity against thermolysin, trypsin and α-chymotrypsin
(§4) This was assayed in accordance with the method of Laskowski [see Meth. Enzymol., 2, 8 (1955)] using a thermally denatured casein as substrate for the respective enzymes (i.e. thermolysin, trypsin and α-chymotrypsin).

[4] = target: α-chymotrypsin (Bos taurus, UniProt P00766); test: Inhibitory activity against α-chymotrypsin (method of Laskowski, thermally denatured casein substrate); assay type: biochemical; details: for inhibition at 4000 µM: at 4.0 × 10^-3 M
Experimental: as §3, §4

[5] = tested on: bacteria (Clostridium)-derived collagenase; test: Inhibitory activity against bacteria (Clostridium)-derived collagenase (method of Nagai, FITC-derivatized bovine type I collagen); assay type: biochemical
Experimental: as §1, §2

[6] = tested on: sword bean-derived urease; test: Inhibitory activity against urease (method of Kobashi et al.); assay type: biochemical; details: at 4.0 × 10^-3 M
Experimental: (2) Inhibitory activity against urease
The inhibitory activity against urease was assayed in accordance with the method of Kobashi et al. [see Biochem. Biophys.

[7] = tested on: trypsin; test: Inhibitory activity against trypsin (method of Laskowski, thermally denatured casein substrate); assay type: biochemical
Experimental: as §3, §4

[8] = tested on: mice; test: Acute toxicity test (LD50) in mice; assay type: in vivo
Excerpt: The toxicity of the new peptide compounds of this invention is as follows:
Acute toxicity test (LD50) in mice

[9] = read-out: IC50 Human fibroblast collagenase

Question: Which IC50 [1] does the source give for `CC(C)C[C@@H](NC(=O)[C@@H]1CCCN1C(=O)CNC(=O)c1ccccc1)C(=O)N[C@H](C)C(=O)NO` [Example 35, BzGlyPro-D-Leu-D-AlaNHOH] (Bz-GP[dL][dA]-{NHOH}) here?
Answer: 6.4 µM

Question: What about the IC50 [2] of the same compound?
Answer: 3.1 µM

Question: What about the inhibition at 4000 µM [3] of the same compound?
Answer: 38%

Question: What about the inhibition at 100 µM ([4]; at 1.0 × 10^-4 M) of the same compound?
Answer: 12.8%

Question: With `CC(C)C[C@H](NC(=O)[C@@H]1CCCN1C(=O)CNC(=O)c1ccccc1)C(=O)N[C@@H](C)C(=O)NO` [Example 34, BzGlyProLeuAlaNHOH] (Bz-GPLA-{NHOH}) as the compound, how does the IC50 [1] read?
Answer: 2.7 µM

Question: What about the IC50 [2] of the same compound?
Answer: 7.7 µM

Question: And the inhibition at 4000 µM [3]?
Answer: 35%

Question: And the inhibition at 200 µM ([4]; at 2.0 × 10^-4 M)?
Answer: 0%

Question: Which IC50 [1, 9] does the source give for `CC(C)C[C@@H](NC(=O)[C@@H]1CCCN1C(=O)CNC(=O)c1ccc(N)cc1)C(=O)N[C@H](C)C(=O)NO` [Example 6] (H-[4Abz]GP[dL][dA]-{NHOH}; N-terminus and C-terminus assumed) here?
Answer: 1.28 µM

Question: And the “Inhibition (%) Bacterial collagenase” value ([5]; at 2.0 × 10^-4 M)?
Answer: 7.1%

Question: And the “Inhibition (%) Urease” value [6]?
Answer: 2.0%

Question: And the inhibition at 4000 µM [3]?
Answer: 26.8%

Question: And the “Inhibition (%) Trypsin” value ([7]; at 2.0 × 10^-3)?
Answer: 6.5%

Question: And the inhibition at 2000 µM ([4]; at 2.0 × 10^-3 M)?
Answer: 26.4%

Question: What about the “LD50 Intraperitoneal administration” value [8] of the same compound?
Answer: > 2000 mg/kg

Question: What about the “LD50 Intravenous administration” value [8] of the same compound?
Answer: > 200 mg/kg

Question: `CC(C)C[C@@H](NC(=O)[C@@H](CC(C)C)NC(=O)[C@@H]1CCCN1C(=O)CN1C(=O)c2ccccc2C1=O)C(=O)NO` [Example 40, PTHGlyPro-D-Leu-D-LeuNHOH] was tested. Which IC50 [1, 9] did it give?
Answer: 3.6 µM

Question: What about the IC50 ([2]; read-out: IC50 Tadpole collagenase) of the same compound?
Answer: 3.1 µM

Question: And the “Inhibition (%) Bacterial collagenase” value ([5]; at 4.0 × 10^-3 M)?
Answer: 20.7%

Question: What about the “Inhibition (%) Urease” value [6] of the same compound?
Answer: 3.3%

Question: And the inhibition at 4000 µM [3]?
Answer: 32.2%

Question: What about the “Inhibition (%) Trypsin” value ([7]; at 1.0 × 10^-2) of the same compound?
Answer: 21.6%

Question: And the inhibition at 10000 µM ([4]; at 1.0 × 10^-2 M)?
Answer: 22.3%

Question: How did the IC50 [1, 9] turn out when `CC(C)C[C@@H](NC(=O)[C@@H]1CCCN1C(=O)CNC(=O)c1ccc(O)cc1)C(=O)N[C@H](C)C(=O)NO` [Example 7, p-Hydroxybenzoyl-glycyl-L-prolyl-D-leucyl-D-alanylhydroxamic acid] ({Benzoyl(4-OH)}-GP[dL][dA]-{NHOH}) was run?
Answer: 1.18 µM

Question: And the IC50 [2]?
Answer: 1.05 µM

Question: And the inhibition at 4000 µM [3]?
Answer: 60.4%

Question: What about the inhibition at 4000 µM [4] of the same compound?
Answer: 22.3%

Question: And the “LD50 Intraperitoneal administration” value [8]?
Answer: > 2000 mg/kg

Question: And the “LD50 Intravenous administration” value [8]?
Answer: > 200 mg/kg

Question: `CC(C)C[C@H](NC(=O)[C@@H]1CCCN1C(=O)CNC(=O)c1ccc(N)cc1)C(=O)N[C@@H](C)C(=O)NO` [Example 41, AcOH.ABAGlyProLeuAlaNHOH] (H-[4Abz]GPLA-{NHOH}) was tested. Which IC50 [1, 9] did it give?
Answer: 3.7 µM

Question: What about the IC50 [2] of the same compound?
Answer: 4 µM

Question: What about the inhibition at 20 µM ([3]; at 2.0 × 10^-5 M) of the same compound?
Answer: 4%

Question: And the inhibition at 20 µM ([4]; at 2.0 × 10^-5 M)?
Answer: 27.3%

Question: What about the “LD50 Intraperitoneal administration” value [8] of the same compound?
Answer: > 2000 mg/kg

Question: What about the “LD50 Intravenous administration” value [8] of the same compound?
Answer: > 200 mg/kg

Question: Which IC50 [1, 9] does the source give for `CC(C)C[C@H](NC(=O)[C@@H]1CCCN1C(=O)CNC(=O)OC(C)(C)C)C(=O)N[C@H](C(=O)NO)C(C)C` [Example 18, BocGlyProLeuValNHOH] (Boc-GPLV-{NHOH}) here?
Answer: 3.1 µM

Question: And the IC50 [2]?
Answer: 9.8 µM

Question: And the inhibition at 10100 µM ([3]; at 1.01 × 10^-2 M)?
Answer: 50%

Question: And the inhibition at 4000 µM [4]?
Answer: 0%
